According to BindingDB's records for doi:10.1016/j.bmcl.2005.04.054 (Schering-Plough Research Institute, 2005):

Experiment: Inhibitory concentration against BaF3 cell line expressed recombinant human CCR3 using the chemotaxis assay

- IC50: 136 nM
SMILES: O=C(NCC1CCCN(C2CCN(Cc3ccc(Cl)c(Cl)c3)CC2)C1)c1ccc2ncccc2c1 (stereo unspecified) [Quinoline-6-carboxylic acid [1'-(3,4-dichloro-benzyl)-[1,4']bipiperidinyl-3-ylmethyl]-amide]
